Measured values published in patent publication US6737383B1, “Herbicidal oxadiazolidines” (priority 1999, dated 2004).

Experiments:
bedstraw = assay: Test B pre/postemergence bedstraw; format: in vivo, Galium aparine
Outline: (§1)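 Herbicidal effect was estimated by eye on a ten-point control scale after plants spent twelve to sixteen days in a greenhouse following soil or foliar treatment. Foliar sprays targeted plants at one to four leaves; all doses were formulated in a non-phytotoxic solvent with surfactant.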

blackgrass = assay: Test B pre/postemergence blackgrass; format: in vivo, Alopecurus myosuroides
Outline: as §1

surinam grass = assay: Test B pre/postemergence surinam grass; format: in vivo, Brachiaria decumbens
Outline: as §1

cocklebur = assay: Test B pre/postemergence cocklebur; format: in vivo, Xanthium strumarium
Outline: as §1

corn = assay: Test B pre/postemergence corn; format: in vivo, Zea mays
Outline: as §1

crabgrass = assay: Test B pre/postemergence crabgrass; format: in vivo, Digitaria sanguinalis
Outline: as §1

giant foxtail = assay: Test B pre/postemergence giant foxtail; format: in vivo, Setaria faberii
Outline: as §1

morningglory = assay: Test B pre/postemergence morningglory; format: in vivo, Ipomoea hederacea
Outline: as §1

pigweed = assay: Test B pre/postemergence pigweed; format: in vivo, Amaranthus retroflexus
Outline: as §1

rape = assay: Test B pre/postemergence rape; format: in vivo, Brassica napus
Outline: as §1

soybean = assay: Test B pre/postemergence soybean; format: in vivo, Glycine max
Outline: as §1

sugar beet = assay: Test B pre/postemergence sugar beet; format: in vivo, Beta vulgaris
Outline: as §1

velvetleaf = assay: Test B pre/postemergence velvetleaf; format: in vivo, Abutilon theophrasti
Outline: as §1

wheat = assay: Test B pre/postemergence wheat; format: in vivo, Triticum aestivum
Outline: as §1

wild oat = assay: Test B pre/postemergence wild oat; format: in vivo, Avena fatua
Outline: as §1

purple nutsedge = assay: Test B pre/postemergence purple nutsedge; format: in vivo, Cyperus rotundus
Outline: as §1

rice = assay: Test B flood test rice; format: in vivo, Oryza sativa
Outline: (§2)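 Plants were grown to the 2-leaf stage before treatment with test chemical, then held in a greenhouse for twelve to sixteen days. Injury was visually rated against untreated controls on a 0–10 scale, where 0 is no effect and 10 is complete control.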

smallflower flatsedge = assay: Test B flood test smallflower flatsedge; format: in vivo, Cyperus difformis
Outline: as §2

duck salad = assay: Test B flood test duck salad; format: in vivo, Heteranthera limosa
Outline: as §2

bamyardgrass = assay: Test B flood test barnyardgrass; format: in vivo, Echinochloa crus-galli
Outline: as §2

[1] = Preemergence, Rate 62 g/ha, scale of 0 to 10 where 0 is no effect and 10 is complete control
[2] = Preemergence, Rate 250 g/ha, scale of 0 to 10 where 0 is no effect and 10 is complete control
[3] = Preemergence, Rate 500 g/ha, scale of 0 to 10 where 0 is no effect and 10 is complete control
[4] = Rate 62 g/ha, Postemergence, scale of 0 to 10 where 0 is no effect and 10 is complete control
[5] = Rate 125 g/ha, Postemergence, scale 0 to 10
[6] = Rate 125 g/ha, Preemergence, scale of 0 to 10 where 0 is no effect and 10 is complete control
[7] = Rate 500 g/ha, Postemergence, scale 0 to 10, 0 no effect, 10 complete control
[8] = Rate 62 g/ha, headed Pre-emergence (flood test species), scale 0 to 10 (0 no effect, 10 complete control)
[9] = Rate 125 g/ha, Pre-emergence, flood test species, scale 0 to 10 where 0 is no effect and 10 is complete control
[10] = Rate 250 g/ha, Pre-emergence, flood-test species, scale 0 to 10, 0 is no effect, 10 is complete control
[11] = Rate 500 g/ha, Pre-emergence, flood test species, scale 0 to 10 (0 no effect, 10 complete control)

CCCCCC#CCn1c(=O)on(C(=O)N(c2ccc(F)cc2)C(C)C)c1=O [Compound 254]
Bedstraw plant response rating (bedstraw; [1]): 0
Bedstraw plant response rating (bedstraw; [2]): 0
Plant response rating, Bedstraw (bedstraw; [3]): 0
Bedstraw plant response rating (bedstraw; [4]): 0
Bedstraw plant response rating (bedstraw; [5]): 4
Bedstraw plant response rating (bedstraw; [6]): 0
Plant response rating (0 to 10; 0 is no effect, 10 is complete control), Bedstraw (bedstraw; Rate 250 g/ha, Postemergence): 4
Bedstraw plant response rating (bedstraw; [7]): 4
Blackgrass plant response rating (blackgrass; [1]): 0
Blackgrass plant response rating (blackgrass; [2]): 0
Plant response rating, Blackgrass (blackgrass; [3]): 4
Blackgrass plant response rating (blackgrass; [4]): 0
Blackgrass plant response rating (blackgrass; [5]): 0
Blackgrass plant response rating (blackgrass; [6]): 0
Plant response rating (0 to 10; 0 is no effect, 10 is complete control), Blackgrass (blackgrass; Rate 250 g/ha, Postemergence): 0
Blackgrass plant response rating (blackgrass; [7]): 0
B. signalgrass plant response rating (surinam grass; [1]): 0
B. signalgrass plant response rating (surinam grass; [2]): 0
Plant response rating, B. signalgrass (surinam grass; [3]): 0
B. signalgrass plant response rating (surinam grass; [4]): 0
B. signalgrass plant response rating (surinam grass; Rate 125 g/ha, Postemergence, scale 0 (no effect) to 10 (complete control)): 0
B. signalgrass plant response rating (surinam grass; [6]): 0
Plant response rating (0 to 10; 0 is no effect, 10 is complete control), B. signalgrass (surinam grass; Rate 250 g/ha, Postemergence): 0
B. signalgrass plant response rating (surinam grass; [7]): 0
Cocklebur plant response rating (cocklebur; [1]): 0
Cocklebur plant response rating (cocklebur; [2]): 0
Plant response rating, Cocklebur (cocklebur; [3]): 0
Cocklebur plant response rating (cocklebur; [4]): 0
Cocklebur plant response rating (cocklebur; [5]): 0
Cocklebur plant response rating (cocklebur; [6]): 0
Plant response rating (0 to 10; 0 is no effect, 10 is complete control), Cocklebur (cocklebur; Rate 250 g/ha, Postemergence): 0
Cocklebur plant response rating (cocklebur; [7]): 0
Corn plant response rating (corn; [1]): 0
Corn plant response rating (corn; [2]): 0
Plant response rating, Corn (corn; [3]): 0
Corn plant response rating (corn; [4]): 0
Corn plant response rating (corn; [5]): 0
Corn plant response rating (corn; [6]): 0
Plant response rating (0 to 10; 0 is no effect, 10 is complete control), Corn (corn; Rate 250 g/ha, Postemergence): 0
Corn plant response rating (corn; [7]): 0
Crabgrass plant response rating (crabgrass; [1]): 0
Crabgrass plant response rating (crabgrass; [2]): 0
Plant response rating, Crabgrass (crabgrass; [3]): 3
Crabgrass plant response rating (crabgrass; [6]): 0
Plant response rating (0 to 10; 0 is no effect, 10 is complete control), Crabgrass (crabgrass; Rate 250 g/ha, Postemergence): 0
Crabgrass plant response rating (crabgrass; [7]): 0
Giant foxtail plant response rating (giant foxtail; [1]): 0
Giant foxtail plant response rating (giant foxtail; [2]): 6
Plant response rating, Giant foxtail (giant foxtail; [3]): 10
Giant foxtail plant response rating (giant foxtail; [6]): 3
Plant response rating (0 to 10; 0 is no effect, 10 is complete control), Giant foxtail (giant foxtail; Rate 250 g/ha, Postemergence): 0
Giant foxtail plant response rating (giant foxtail; [7]): 0
Morningglory plant response rating (morningglory; [1]): 0
Morningglory plant response rating (morningglory; [2]): 0
Plant response rating, Morningglory (morningglory; [3]): 0
Morningglory plant response rating (morningglory; [6]): 0
Plant response rating (0 to 10; 0 is no effect, 10 is complete control), Morningglory (morningglory; Rate 250 g/ha, Postemergence): 9
Morningglory plant response rating (morningglory; [7]): 9
Redroot pigweed plant response rating (pigweed; [1]): 0
Redroot pigweed plant response rating (pigweed; [2]): 0
Plant response rating, Redroot pigweed (pigweed; [3]): 0
Redroot pigweed plant response rating (pigweed; [6]): 0
Plant response rating (0 to 10; 0 is no effect, 10 is complete control), Redroot pigweed (pigweed; Rate 250 g/ha, Postemergence): 3
Redroot pigweed plant response rating (pigweed; [7]): 6
Rape plant response rating (rape; [1]): 0
Rape plant response rating (rape; [2]): 2
Plant response rating, Rape (rape; [3]): 6
Rape plant response rating (rape; [6]): 0
Plant response rating (0 to 10; 0 is no effect, 10 is complete control), Rape (rape; Rate 250 g/ha, Postemergence): 2
Rape plant response rating (rape; [7]): 2
Soybean plant response rating (soybean; [1]): 0
Soybean plant response rating (soybean; [2]): 0
Plant response rating, Soybean (soybean; [3]): 0
Soybean plant response rating (soybean; [6]): 0
Soybean plant response rating (soybean; [7]): 2
Sugarbeets plant response rating (sugar beet; [1]): 0
Sugarbeets plant response rating (sugar beet; [2]): 2
Plant response rating, Sugarbeets (sugar beet; [3]): 6
Sugarbeets plant response rating (sugar beet; [6]): 2
Sugarbeets plant response rating (sugar beet; [7]): 7
Velvetleaf plant response rating (velvetleaf; [1]): 0
Velvetleaf plant response rating (velvetleaf; [2]): 0
Plant response rating, Velvetleaf (velvetleaf; [3]): 0
Velvetleaf plant response rating (velvetleaf; [6]): 0
Velvetleaf plant response rating (velvetleaf; [7]): 2
Wheat plant response rating (wheat; [1]): 0
Wheat plant response rating (wheat; [2]): 0
Plant response rating, Wheat (wheat; [3]): 0
Wheat plant response rating (wheat; [6]): 0
Wheat plant response rating (wheat; [7]): 0
Wild oats plant response rating (wild oat; [1]): 0
Wild oats plant response rating (wild oat; [2]): 0
Plant response rating, Wild oats (wild oat; [3]): 2
Wild oats plant response rating (wild oat; [6]): 0
Wild oats plant response rating (wild oat; [7]): 0
Nutsedge plant response rating (purple nutsedge; [1]): 0
Nutsedge plant response rating (purple nutsedge; [2]): 0
Plant response rating, Nutsedge (purple nutsedge; [3]): 0
Nutsedge plant response rating (purple nutsedge; [6]): 0
Plant response rating (0 to 10; 0 is no effect, 10 is complete control), Nutsedge (purple nutsedge; Rate 250 g/ha, Postemergence): 0
Nutsedge plant response rating (purple nutsedge; [7]): 0
Rice plant response rating (rice; [8]): 0
Rice plant response rating (rice; [9]): 0
Rice plant response rating (rice; [10]): 0
Rice plant response rating (rice; [11]): 0
S. Flatsedge plant response rating (smallflower flatsedge; [8]): 0
S. Flatsedge plant response rating (smallflower flatsedge; [9]): 0
S. Flatsedge plant response rating (smallflower flatsedge; [10]): 0
S. Flatsedge plant response rating (smallflower flatsedge; [11]): 0
Ducksalad plant response rating (duck salad; [8]): 0
Ducksalad plant response rating (duck salad; [9]): 0
Ducksalad plant response rating (duck salad; [10]): 0
Ducksalad plant response rating (duck salad; [11]): 0
Barnyardgrass plant response rating (bamyardgrass; [8]): 0
Barnyardgrass plant response rating (bamyardgrass; [9]): 0
Barnyardgrass plant response rating (bamyardgrass; [10]): 0
Barnyardgrass plant response rating (bamyardgrass; [11]): 0
